According to patent US8859776B2, “Substituted piperidines that increase p53 activity and the uses thereof” (Merck Sharp & Dohme Corp., priority 2009, dated 2014):

Biological target: HDM2 protein (Homo sapiens, UniProt Q00987)
Assay: fluorescence polarization assay for HDM2 inhibitory activity
Assay type: binding
Conditions: read-out: FP (IC 50 uM)
Source text: The inventive compounds can readily be evaluated to determine activity at the HDM2 protein by known methods such as the fluorescence polarization screening assay that measures the inhibitory concentration that achieves 50% of maximal activity (FP IC50) and the dissociation constant for inhibitor binding (FP Ki). [Zhang et al., J. Analytical Biochemistry 331: 138-146 (2004)].

HDM2 protein, sequence (Q00987 whole entry): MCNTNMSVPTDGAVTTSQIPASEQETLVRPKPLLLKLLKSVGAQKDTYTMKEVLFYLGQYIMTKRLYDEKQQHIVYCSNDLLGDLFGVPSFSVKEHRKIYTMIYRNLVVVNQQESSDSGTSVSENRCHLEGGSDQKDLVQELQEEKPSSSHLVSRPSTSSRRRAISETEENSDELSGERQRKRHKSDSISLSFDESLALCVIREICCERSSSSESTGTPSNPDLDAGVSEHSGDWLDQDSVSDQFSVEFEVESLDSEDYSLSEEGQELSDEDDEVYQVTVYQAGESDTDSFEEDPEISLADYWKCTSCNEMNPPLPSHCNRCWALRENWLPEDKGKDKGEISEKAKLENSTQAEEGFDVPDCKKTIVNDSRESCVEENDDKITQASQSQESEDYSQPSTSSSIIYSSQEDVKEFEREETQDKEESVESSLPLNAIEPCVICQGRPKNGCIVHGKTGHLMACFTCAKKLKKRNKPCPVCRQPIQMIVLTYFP

Row | IC50 [µM] | SMILES
1 | 0.009 | CCC[C@H]1N(C(=O)c2cnccc2C(F)(F)F)CCC[C@@]1(Oc1csc(C(F)(F)F)c1)C(=O)N1CCC(c2ccccc2OCCCC(=O)NS(=O)(=O)C2CC2)CC1 [Compound A2]
2 | 0.014 | CCC[C@H]1N(C(=O)c2cnccc2C(F)(F)F)CCC[C@@]1(Oc1csc(C(F)(F)F)c1)C(=O)N1CCC(C#N)(c2ccccc2OCCCCC(=O)O)CC1 [Compound A4]
3 | 0.019 | CCC[C@H]1N(C(=O)c2cnccc2C(F)(F)F)CCC[C@@]1(Oc1csc(C(F)(F)F)c1)C(=O)N1CCC(c2nn[nH]n2)(c2ccccc2OC)CC1 [Compound A54]
4 | 0.013 | CCC[C@H]1N(C(=O)c2cnccc2C(F)(F)F)CCC[C@@]1(Oc1ccc(C(F)(F)F)cc1)C(=O)N1CCC(C#N)(c2ccccc2CCC(=O)O)CC1 [Compound A83]
5 | 0.011 | CCC[C@H]1N(C(=O)c2ncccc2C(F)(F)F)CCC[C@@]1(Oc1csc(C(F)(F)F)c1)C(=O)N1CCC(O)(c2ccccc2OCCCP(=O)(O)O)CC1 [Compound A89, 3-(2-(4-hydroxy-1-((2R,3S)-2-propyl-1-(3-(trifluoromethyl)picolinoyl)-3-(5-(trifluoromethyl)thiophen-3-yloxy)piperidine-3-carbonyl)piperidin-4-yl)phenoxy)propylphosphonic acid]
6 | 0.011 | CCC[C@H]1N(C(=O)c2cnccc2C(F)(F)F)CCC[C@@]1(Oc1csc(C(F)(F)F)c1)C(=O)N1CCC(c2ccccc2CCc2nnn[nH]2)CC1 [Compound A133, (4-(2-(2-(1H-tetrazol-5-yl)ethyl)phenyl)piperidin-1-yl)((2R,3S)-2-propyl-1-(4-(trifluoromethyl)nicotinoyl)-3-(5-(trifluoromethyl)thiophen-3-yloxy)piperidin-3-yl)methanone]
7 | 0.008 | CCC[C@H]1N(C(=O)c2ncccc2C(F)(F)F)CCC[C@@]1(Oc1csc(C(F)(F)F)c1)C(=O)N1CCC(O)(c2ccccc2O[C@@H]2CC[C@](C)(C(=O)NS(C)(=O)=O)C2)CC1 [Compound A145]
